Source: patent US20050084490A1, “Boroproline compound combination therapy” (Point Therapeutics, Inc., priority 2002, published 2005)

Columns and labels:
Namalwa cells = assay: NOD/SCID mouse model of Burkitt's Non-Hodgkin's Lymphoma; type: in vivo, NOD/SCID mice; settings: Namalwa subcutaneous tumors; PT-100 5 μg twice daily day 2 to 20; antibody or normal human IgG 1.5 mg on days 3, 5 and 7
Procedure: Immunodeficient NOD/SCID mice were inoculated with Namalwa cells derived from a Burkitt's NHL. The human lymphoma cells proliferated in the immunodeficient mice to form solid subcutaneous tumors. Mice were administered 1.5 mg of normal human lgG or 1.5 mg of a human CD20-specific antibody (Rituxan) on each of days 3, 5 and 7 after tumor inoculation. Additional treatments with 5 μg PT-100 administered twice daily from day 2 until day 20 after tumor inoculation were given as indicated in the Figure Legend. The four treatment groups each contained 4 or 5 replicate mice. The data represent mean tumor volumes (±SE). Control treatment with normal human IgG had no effect on tumor growth as compared with saline treatment (data not shown). […] The data support the concept that when combined together, PT-100 and a tumor-specific antibody can have a greater growth inhibitory effect against a tumor than either treatment by itself.

WEHI 164 tumor cells = assay: WEHI 164 tumor growth and rejection in euthymic and athymic BALB/c mice; type: in vivo; settings: 5 μg dose; for tumor growth (tumor volume): day 2 until day 20 after tumor inoculation
Procedure: Normal euthymic BALB/c mice (+/+) or athymic BALB/c mice that are congenitally deficient in mature T lymphocytes (nu/nu) were inoculated with WEHI 164 tumor cells. The mice were administered a 5 μg dose of PT-100 or saline (control) from day 2 until day 20 after tumor inoculation and tumor volumes ([…]) were measured at the times indicated on the ordinate. Each treatment group contained 10 replicate mice. […] In euthymic mice, however, tumors were completely rejected by day 20 in 40 per cent of the mice treated with PT-100 whereas tumor rejection was not observed in PT-100 treated athymic mice. In the WEHI 164 tumor model, tumor rejection never occurred spontaneously in control mice. […] The data are consistent with a mechanism of action involving increased production of cytokines and chemokines in mice treated with PT-100 as described in Example 1.

[1] = test system: cytokine and chemokine genes; assay: Cytokine and chemokine gene expression (Affymetrix GeneChips) in lymph nodes and WEHI 164 tumors; type: in vivo, mice; settings: 5 μg twice daily
Procedure: (§1) Mice were inoculated with WEHI 164 cells, and starting 2 days later, administered (twice daily) a 5 μg dose of PT-100 or saline (control). RNA extracted from lymph nodes and tumors 2 hours after the first dose of PT-100 on day 4 after tumor inoculation was processed, labeled and hybridized to Affymetrix GeneChips according to the manufacturer's instructions. The log ratio of expression values (PT-100 treated:saline treatment) has been plotted on the ordinates for the cytokine and chemokine genes indicated on the abscissae. Zero values indicate that gene expression was either undetectable or unaffected by PT-100 treatment.
as §1, with “tumors 30 minutes or” for “tumors”, “ratios for” for “ratio of”, “have” for “has”, “cytokine” for “cytokine and chemokine”, “treatment. […]” for “treatment.”

IL-1β, G-CSF and KC [2] = assay: ELISA of IL-1β, G-CSF and KC in serum and spleen extracts of B6 and IL-1 receptor-1 mutant mice; type: in vivo; settings: 40 or 160 μg oral, 8 hours
Procedure: Normal B6 mice (+/+) and congenic B6.129S7-Illr1^tmllmx mice with a targeted mutation of the IL-1 receptor-1 (−/−) were orally administered 40 or 160 μg of PT-100 or saline as indicated on the abscissae. 8-hours after PT-100 administration, IL-1β, G-CSF and KC levels were determined by ELISA of serum and extracts of spleen. Cytokine and chemokine levels are indicated on the ordinate as pg/ml or ng/ml of serum, and as pg/mg or ng/mg of protein in each spleen extract as determined by BCA protein assays.

IL-1β, G-CSF and KC [3] = assay: ELISA of IL-1β, G-CSF and KC in serum and spleen extracts of BALB/c mice; type: in vivo; settings: 20 μg oral, 8 hours after administration
Procedure: BALB/c mice were orally administered 20 μg PT-100 or saline as indicated on the abscissae. Eight hours after PT-100 administration, IL-1β, G-CSF and KC levels were determined by ELISA (R&D Systems) of serum and extracts of spleens. Cytokine and chemokine levels are indicated on the ordinate as pg/ml or ng/ml of serum, and as pg/mg or ng/mg of protein in each spleen extract as determined by BCA protein assays (Pierce).

[4] = IL-1 receptor-1 mutant (−/−) mice

Row | Molecule | tumor growth (mean tumor volume) (Namalwa cells) | tumor growth (tumor volume) (WEHI 164 tumor cells; athymic BALB/c (nu/nu) mice) | tumor rejection (WEHI 164 tumor cells; athymic BALB/c mice, day 2 until day 20) | mice with tumors completely rejected by day 20 (WEHI 164 tumor cells; euthymic BALB/c mice, day 2 until day 20) | tumor growth (tumor volume) (WEHI 164 tumor cells; normal euthymic BALB/c (+/+) mice) | cytokine and chemokine gene expression in tumor and draining inguinal lymph nodes ([1]; WEHI 164 tumor mice, 2 hours after first dose on day 4 after tumor inoculation) | IL-1β mRNA levels in lymph nodes ([1]; oral, 30 minutes vs 2 hours after first dose on day 4, inguinal lymph nodes draining WEHI 164 tumors) | IL-1β levels in the spleen (IL-1β, G-CSF and KC [2]; IL-1 receptor-1 mutant (−/−) mice compared to normal B6 mice) | serum G-CSF levels (IL-1β, G-CSF and KC [2]; [4]) | serum KC levels (IL-1β, G-CSF and KC [2]; [4]) | splenic G-CSF levels (IL-1β, G-CSF and KC [2]; [4]) | splenic KC levels (IL-1β, G-CSF and KC [2]; [4]) | G-CSF levels in serum (IL-1β, G-CSF and KC [3]; serum) | IL-1β serum levels (IL-1β, G-CSF and KC [3]; serum) | KC levels in serum (IL-1β, G-CSF and KC [3]; serum) | G-CSF levels in spleen (IL-1β, G-CSF and KC [3]; spleen extract) | IL-1β levels in spleen tissue (IL-1β, G-CSF and KC [3]; spleen extract) | KC levels in spleen (IL-1β, G-CSF and KC [3]; spleen extract)
1 | CC(C)[C@H](N)C(=O)N1CCC[C@H]1B(O)O [PT-100, Val-boroPro] | significantly (p<0.05) inhibited tumor growth | significantly inhibited tumor growth | not observed | 40 per cent of the mice | significantly inhibited tumor growth | selective induction of cytokine and chemokine gene expression | increase in lymph nodes before those of other cytokines | could still increase IL-1β levels in the spleen; but the magnitude of the response was greatly reduced | essentially unaffected | essentially unaffected | essentially unaffected | essentially unaffected | increased in both spleen and serum | without increasing serum levels | increased in both spleen and serum | increased in both spleen and serum | increases IL-1β levels in spleen tissue | increased in both spleen and serum
2 | Rituxan: human CD20-specific antibody (anti-CD20 mAb rituximab) [reference compound] | significantly (p<0.05) inhibited tumor growth | – | – | – | – | – | – | – | – | – | – | – | – | – | – | – | – | –
